In the test the test system is BDF1 mice, B16 melanoma ip, median survival T/C. As to the kind of experiment: NCI In Vivo Anticancer Drug Screen. Data for tumor model B16 Melanoma (intraperitoneal) in B6D2F1 (BDF1) mice. The conditions noted are these: endpoint: median survival time, higher = longer survival. In short, it runs like this: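 Each result divides a survival or tumor-size measurement in the compound-treated group by the same measurement in the vehicle group.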

Where [1] appears, read: dose: 50.0 mg/kg/injection, schedule: Q01DX009 (ip), vehicle: saline.
The mark [2] stands for this setting: dose: 100.0 mg/kg/injection, schedule: Q01DX009 (ip), vehicle: saline.
The mark [3] stands for this setting: dose: 12.5 mg/kg/injection, schedule: Q01DX009 (ip), vehicle: Klucel (hydroxypropylcellulose) (HPC).
Setting [4] is: dose: 50.0 mg/kg/injection, schedule: Q01DX009 (ip), vehicle: Klucel (hydroxypropylcellulose) (HPC).
[5] abbreviates: dose: 25.0 mg/kg/injection, schedule: Q01DX009 (ip), vehicle: Klucel (hydroxypropylcellulose) (HPC).
The mark [6] stands for this setting: dose: 100.0 mg/kg/injection, schedule: Q01DX009 (ip), vehicle: Klucel (hydroxypropylcellulose) (HPC).
[7] abbreviates: dose: 200.0 mg/kg/injection, schedule: Q01DX009 (ip), vehicle: Klucel (hydroxypropylcellulose) (HPC).
Where [8] appears, read: dose: 400.0 mg/kg/injection, schedule: Q01DX009 (ip), vehicle: Klucel (hydroxypropylcellulose) (HPC).
[9] abbreviates: dose: 100.0 mg/kg/injection, schedule: Q01DX009 (ip), vehicle: saline with Tween-80.
Where [10] appears, read: dose: 25.0 mg/kg/injection, schedule: Q01DX009 (ip), vehicle: saline with Tween-80.
The mark [11] stands for this setting: dose: 50.0 mg/kg/injection, schedule: Q01DX009 (ip), vehicle: saline with Tween-80.

Structures are written as SMILES. Values joined by “and” are separate entries in the source; they are usually repeats but may differ in a detail not shown here. Equal values may be shown once. Inconclusive results and toxic doses are left out.

Take `COC(=O)N1CC=CCN1C(=O)OC`: the T/C was 102 % of control (dose: 100.0 mg/kg/injection, schedule: Q04DX003 (ip), vehicle: saline with Tween-80); 102 % of control (dose: 200.0 mg/kg/injection, schedule: Q04DX003 (ip), vehicle: saline with Tween-80); 94 % of control (dose: 400.0 mg/kg/injection, schedule: Q04DX003 (ip), vehicle: saline with Tween-80).

For `C#CC[N+]12CN3CN(CN(C3)C1)C2`, the T/C was 104 % of control under setting [1]; 100 % of control under setting [2]; 107 % of control (dose: 200.0 mg/kg/injection, schedule: Q01DX009 (ip), vehicle: saline).

`Cc1cc(C)nc(NC(=O)COc2ccc(Cl)cc2)c1`: the T/C was 97 % of control under setting [3]; 97 % of control and 106 % of control under setting [4].

In the case of `Cc1c2cnccc2c(C)c2c1c1ccccc1n2CC1CO1` (centres undefined), the T/C runs as follows: (dose: 3.75 mg/kg/injection, schedule: Q01DX009 (ip), vehicle: Klucel (hydroxypropylcellulose) (HPC)) 117 % of control; (dose: 7.5 mg/kg/injection, schedule: Q01DX009 (ip), vehicle: Klucel (hydroxypropylcellulose) (HPC)) 114 % of control; (dose: 15.0 mg/kg/injection, schedule: Q01DX009 (ip), vehicle: Klucel (hydroxypropylcellulose) (HPC)) 121 % of control.

Take `C=C1C(=O)O[C@H]2C1[C@H](OC(=O)/C(C)=C\COC(C)=O)C[C@]1(CO1)[C@@H]1[C@H](O)[C@H]3O[C@@]3(C)[C@@H]12` (some centres undefined): the T/C runs as follows: (dose: 3.12 mg/kg/injection, schedule: Q01DX009 (ip), vehicle: other) 112 % of control; (dose: 6.25 mg/kg/injection, schedule: Q01DX009 (ip), vehicle: other) 104 % of control; (dose: 12.5 mg/kg/injection, schedule: Q01DX009 (ip), vehicle: other) 107 % of control; (dose: 25.0 mg/kg/injection, schedule: Q01DX009 (ip), vehicle: other) 106 % of control; (dose: 50.0 mg/kg/injection, schedule: Q01DX009 (ip), vehicle: other) 109 % of control.

With `C=C(NC(=O)C(=C)NC(=O)c1csc(C2=NC3c4csc(n4)C4NC(=O)c5csc(n5)C(C(C)(O)C(C)O)NC(=O)C5CSC(=N5)/C(=C/C)NC(=O)C(C(C)O)NC(=O)c5csc(n5)C3(CC2)NC(=O)C(C)NC(=O)C(=C)NC(=O)C(=C)NC(=O)C(C(C)C)NC2C=Cc3c(C(C)O)cc(nc3C2O)C(=O)OC4C)n1)C(N)=O` (centres undefined), the T/C was 114 % of control (dose: 3.12 mg/kg/injection, schedule: Q01DX009 (ip), vehicle: saline); 104 % of control and 117 % of control (dose: 6.25 mg/kg/injection, schedule: Q01DX009 (ip), vehicle: saline); 109 % of control and 114 % of control (dose: 12.5 mg/kg/injection, schedule: Q01DX009 (ip), vehicle: saline); 110 % of control and 120 % of control (dose: 25.0 mg/kg/injection, schedule: Q01DX009 (ip), vehicle: saline); 119 % of control and 120 % of control under setting [1]; 123 % of control under setting [2].

On to `CCC(Br)C(=O)Nc1c(C)cccc1Cl` (centres undefined), for which the T/C was 106 % of control under setting [5], 93 % of control under setting [4] and 93 % of control under setting [6].

On to `Cc1c(Cl)cccc1NC(=O)c1ccccc1Cl`, for which the T/C runs as follows: under setting [6], 100 % of control; under setting [7], 93 % of control; under setting [8], 94 % of control.

On to `COc1ccccc1N1CCCSC1=Nc1ccccc1`, for which the T/C reads like this: under setting [3], 98 % of control; under setting [5], 95 % of control; under setting [4], 95 % of control; under setting [6], 100 % of control; under setting [7], 100 % of control.

Take `CC(=O)Nc1ccc([N+](=O)[O-])cc1`: the T/C by setting is: (dose: 12.5 mg/kg/injection, schedule: Q01DX009 (ip), vehicle: alcohol) 95 % of control; (dose: 25.0 mg/kg/injection, schedule: Q01DX009 (ip), vehicle: alcohol) 102 % of control; (dose: 50.0 mg/kg/injection, schedule: Q01DX009 (ip), vehicle: alcohol) 93 % of control; under setting [9], 88 % of control.

With `Clc1nnc(Cl)c(Cl)c1Cl`, the T/C reads like this: (dose: 0.05 mg/kg/injection, schedule: Q01DX009 (ip), vehicle: saline with Tween-80) 109 % of control; (dose: 0.05 mg/kg/injection, schedule: Q04DX003 (ip), vehicle: saline) 102 % of control; (dose: 0.1 mg/kg/injection, schedule: Q01DX009 (ip), vehicle: saline with Tween-80) 100 % of control; (dose: 0.1 mg/kg/injection, schedule: Q04DX003 (ip), vehicle: saline) 91 % of control; (dose: 0.2 mg/kg/injection, schedule: Q01DX009 (ip), vehicle: saline with Tween-80) 100 % of control; (dose: 0.2 mg/kg/injection, schedule: Q04DX003 (ip), vehicle: saline) 89 % of control.

On to `O=C(c1ccccc1)C1NC1c1ccccc1` (centres undefined), for which the T/C is, setting by setting: (dose: 20.0 mg/kg/injection, schedule: Q01DX009 (ip), vehicle: Klucel (hydroxypropylcellulose) (HPC)) 100 % of control; (dose: 40.0 mg/kg/injection, schedule: Q01DX009 (ip), vehicle: Klucel (hydroxypropylcellulose) (HPC)) 97 % of control; (dose: 80.0 mg/kg/injection, schedule: Q01DX009 (ip), vehicle: Klucel (hydroxypropylcellulose) (HPC)) 94 % of control.

With `NCCCN=c1ccc2c3c1c(O)c1c(O)ccc(=O)c1c3[nH]n2CCNCCO`, the T/C reads like this: (dose: 0.5 mg/kg/injection, schedule: Q01DX009 (ip), vehicle: water) 158 % of control and 197 % of control; (dose: 1.0 mg/kg/injection, schedule: Q01DX009 (ip), vehicle: water) 187 % of control and 227 % of control; (dose: 2.0 mg/kg/injection, schedule: Q01DX009 (ip), vehicle: water) 216 % of control and 242 % of control; (dose: 4.0 mg/kg/injection, schedule: Q01DX009 (ip), vehicle: water) 216 % of control and 244 % of control; (dose: 8.0 mg/kg/injection, schedule: Q01DX009 (ip), vehicle: water) 216 % of control and 338 % of control; (dose: 16.0 mg/kg/injection, schedule: Q01DX009 (ip), vehicle: water) 158 % of control.

For `O=[N+]([O-])c1ccc([S][Pb]([c]2ccccc2)([c]2ccccc2)[c]2ccccc2)cc1`, the T/C (dose: 6.25 mg/kg/injection, schedule: Q04DX003 (ip), vehicle: Klucel (hydroxypropylcellulose) (HPC)) was 94 % of control; the T/C (dose: 12.5 mg/kg/injection, schedule: Q04DX003 (ip), vehicle: Klucel (hydroxypropylcellulose) (HPC)) is 97 % of control; the T/C (dose: 25.0 mg/kg/injection, schedule: Q04DX003 (ip), vehicle: Klucel (hydroxypropylcellulose) (HPC)) was 93 % of control; the T/C (dose: 50.0 mg/kg/injection, schedule: Q04DX003 (ip), vehicle: Klucel (hydroxypropylcellulose) (HPC)) was 88 % of control.

For the molecule `CN(C)CCCNC(=O)Nc1ccccc1`, the T/C is 100 % of control under setting [6] and 92 % of control under setting [7].

Take `CCCCC(=O)OCC1OC(n2cnc3c(=S)nc[nH]c32)C(OC(=O)CCCC)C1OC(=O)CCCC` (centres undefined): the T/C under setting [10] was 119 % of control.

Take `CCCCCCCCC(=O)CCC`: the T/C is, setting by setting: (dose: 100.0 mg/kg/injection, schedule: Q04DX003 (ip), vehicle: Klucel (hydroxypropylcellulose) (HPC)) 88 % of control; (dose: 200.0 mg/kg/injection, schedule: Q04DX003 (ip), vehicle: Klucel (hydroxypropylcellulose) (HPC)) 90 % of control; (dose: 400.0 mg/kg/injection, schedule: Q04DX003 (ip), vehicle: Klucel (hydroxypropylcellulose) (HPC)) 94 % of control.

Consider `COc1ccc2nonc2c1`, for which the T/C is 107 % of control under setting [10]; 95 % of control under setting [11]; 91 % of control under setting [9]; 101 % of control (dose: 200.0 mg/kg/injection, schedule: Q01DX009 (ip), vehicle: saline with Tween-80).

As for `C[C@@H]1CC[C@@]2(NC1)O[C@H]1C[C@H]3[C@@H]4CC=C5C[C@@H](O)CC[C@]5(C)[C@H]4CC[C@]3(C)[C@H]1[C@@H]2C`, the T/C under setting [3] was 95 % of control.

In the case of `Cn1nc(-c2ccccc2)nc1[N+](=O)[O-]`, the T/C was 100 % of control (dose: 12.5 mg/kg/injection, schedule: Q01DX009 (ip), vehicle: saline with Tween-80); 96 % of control under setting [10]; 106 % of control under setting [11]; 86 % of control under setting [9].

On to `O=C1c2ccccc2S(=O)(=O)c2ccc(Br)cc21`, for which the T/C was 93 % of control under setting [6], 90 % of control under setting [7] and 93 % of control under setting [8].

These data come from PubChem BioAssay AID192 (DTP/NCI, 2004).
